Like-named read-outs stand apart in the source and are kept apart here.
Assays:
Assay in all cases: Radiolabeled ATP kinase assay, panel of 371 kinases (Table S6)
Assay type in all cases: biochemical
[1] = molecular target: T1, panel of 371 human kinases (Homo sapiens, UniProt P54762); settings: EPHB1; 0.1 μM; 10 μM ATP; read-out: % Enzyme Activity (relative to DMSO controls)
T1 construct: purchased Reaction Biology Corp
Text: (§1) ; FIG. 38C). […]. Further targeted analyses, such as genetic knock-down or knock-out, may be warranted to parse the role of these additional kinases in our model of neurodegeneration.

[2] = molecular target: T2, panel of 371 human kinases (Homo sapiens, UniProt P11362); settings: FGFR1; 0.1 μM; 10 μM ATP; read-out: % Enzyme Activity (relative to DMSO controls)
T2 construct: purchased Reaction Biology Corp
Text: as §1

[3] = molecular target: T3, panel of 371 human kinases (Homo sapiens, UniProt P05129); settings: PKCg; 0.1 μM; 10 μM ATP; read-out: % Enzyme Activity (relative to DMSO controls)
T3 construct: purchased Reaction Biology Corp
Text: as §1

[4] = molecular target: T4, panel of 371 human kinases (Homo sapiens, UniProt Q9H0K1); settings: SIK2; 0.1 μM; 10 μM ATP; read-out: % Enzyme Activity (relative to DMSO controls)
T4 construct: purchased Reaction Biology Corp
T4 sequence (Q9H0K1 whole entry): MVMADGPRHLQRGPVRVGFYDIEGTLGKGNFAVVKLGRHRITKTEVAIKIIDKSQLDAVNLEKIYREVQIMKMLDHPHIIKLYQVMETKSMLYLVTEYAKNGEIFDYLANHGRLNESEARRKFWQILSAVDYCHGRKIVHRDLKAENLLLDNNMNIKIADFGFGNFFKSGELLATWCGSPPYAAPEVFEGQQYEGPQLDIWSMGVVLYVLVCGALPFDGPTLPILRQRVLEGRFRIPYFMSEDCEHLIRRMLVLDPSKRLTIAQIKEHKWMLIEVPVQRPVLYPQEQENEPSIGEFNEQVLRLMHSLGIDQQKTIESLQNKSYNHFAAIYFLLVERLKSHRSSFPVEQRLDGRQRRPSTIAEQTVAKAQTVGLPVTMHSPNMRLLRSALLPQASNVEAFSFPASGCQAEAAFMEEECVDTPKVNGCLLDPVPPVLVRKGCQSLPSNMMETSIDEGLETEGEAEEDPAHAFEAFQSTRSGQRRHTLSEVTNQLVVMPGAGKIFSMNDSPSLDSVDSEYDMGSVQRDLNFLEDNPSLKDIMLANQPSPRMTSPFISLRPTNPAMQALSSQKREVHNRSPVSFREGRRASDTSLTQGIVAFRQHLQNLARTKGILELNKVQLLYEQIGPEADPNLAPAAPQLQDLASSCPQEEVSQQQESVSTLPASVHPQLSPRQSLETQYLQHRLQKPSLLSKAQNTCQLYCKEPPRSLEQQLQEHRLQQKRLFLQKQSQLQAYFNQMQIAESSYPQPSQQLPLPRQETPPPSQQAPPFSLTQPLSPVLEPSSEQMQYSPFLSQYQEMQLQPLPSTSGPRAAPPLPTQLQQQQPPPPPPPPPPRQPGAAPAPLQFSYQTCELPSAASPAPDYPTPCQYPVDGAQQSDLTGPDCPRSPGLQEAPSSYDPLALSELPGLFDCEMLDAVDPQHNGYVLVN
Text: as §1

[5] = molecular target: T5, panel of 371 human kinases (Homo sapiens, UniProt Q9BZL6); settings: PKD2/PRKD2; 0.1 μM; 10 μM ATP; read-out: % Enzyme Activity (relative to DMSO controls)
T5 construct: purchased Reaction Biology Corp
Text: as §1

[6] = molecular target: T6, panel of 371 human kinases (Homo sapiens, UniProt Q15375); settings: EPHA7; 0.1 μM; 10 μM ATP; read-out: % Enzyme Activity (relative to DMSO controls)
T6 construct: purchased Reaction Biology Corp
T6 sequence (Q15375 28-998): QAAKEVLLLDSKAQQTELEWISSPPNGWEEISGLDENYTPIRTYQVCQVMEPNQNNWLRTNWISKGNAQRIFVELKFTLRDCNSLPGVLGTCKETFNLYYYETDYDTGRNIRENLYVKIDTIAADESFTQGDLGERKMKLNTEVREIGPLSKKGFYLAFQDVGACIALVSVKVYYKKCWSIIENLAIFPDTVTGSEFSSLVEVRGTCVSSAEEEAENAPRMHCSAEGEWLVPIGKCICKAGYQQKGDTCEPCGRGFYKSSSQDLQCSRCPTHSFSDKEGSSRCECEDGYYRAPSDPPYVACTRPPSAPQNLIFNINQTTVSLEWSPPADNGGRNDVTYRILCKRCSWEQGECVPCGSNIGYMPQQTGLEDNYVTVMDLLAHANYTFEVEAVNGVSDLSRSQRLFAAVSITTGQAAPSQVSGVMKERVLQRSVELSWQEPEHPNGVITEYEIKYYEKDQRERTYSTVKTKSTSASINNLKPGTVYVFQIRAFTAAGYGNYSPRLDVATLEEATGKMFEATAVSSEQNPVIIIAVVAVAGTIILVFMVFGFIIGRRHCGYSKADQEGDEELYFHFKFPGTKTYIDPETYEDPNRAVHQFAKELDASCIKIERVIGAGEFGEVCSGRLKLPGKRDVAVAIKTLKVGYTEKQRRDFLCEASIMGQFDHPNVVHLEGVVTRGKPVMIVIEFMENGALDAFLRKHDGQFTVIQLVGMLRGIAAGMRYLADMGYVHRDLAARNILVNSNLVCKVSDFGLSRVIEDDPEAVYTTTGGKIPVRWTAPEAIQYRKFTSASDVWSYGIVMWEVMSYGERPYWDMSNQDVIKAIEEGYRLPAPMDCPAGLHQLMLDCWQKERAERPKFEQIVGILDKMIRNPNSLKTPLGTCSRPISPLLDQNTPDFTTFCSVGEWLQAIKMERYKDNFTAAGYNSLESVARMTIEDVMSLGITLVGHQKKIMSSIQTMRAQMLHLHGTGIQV
Text: as §1

[7] = molecular target: T7, panel of 371 human kinases (Homo sapiens, UniProt Q9UQB9); settings: Aurora C; 0.1 μM; 10 μM ATP; read-out: % Enzyme Activity (relative to DMSO controls)
T7 construct: purchased Reaction Biology Corp
T7 sequence (Q9UQB9 whole entry): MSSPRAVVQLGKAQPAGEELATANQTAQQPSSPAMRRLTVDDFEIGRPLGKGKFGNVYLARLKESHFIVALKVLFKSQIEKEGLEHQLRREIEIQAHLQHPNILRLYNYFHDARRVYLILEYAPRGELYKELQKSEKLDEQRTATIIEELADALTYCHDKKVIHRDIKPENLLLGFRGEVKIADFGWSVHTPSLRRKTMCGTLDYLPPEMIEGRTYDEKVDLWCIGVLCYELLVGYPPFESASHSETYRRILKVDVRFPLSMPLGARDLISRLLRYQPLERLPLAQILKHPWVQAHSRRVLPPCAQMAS
Text: as §1

[8] = molecular target: T8, panel of 371 human kinases (Homo sapiens, UniProt P07948); settings: LYN; 0.1 μM; 10 μM ATP; read-out: % Enzyme Activity (relative to DMSO controls)
T8 construct: purchased Reaction Biology Corp
Text: as §1

[9] = molecular target: T9, panel of 371 human kinases (Homo sapiens, UniProt P00533); settings: EGFR; 0.1 μM; 10 μM ATP; read-out: % Enzyme Activity (relative to DMSO controls)
T9 construct: purchased Reaction Biology Corp
Text: as §1

[10] = molecular target: T10, panel of 371 human kinases (Homo sapiens, UniProt P51955); settings: NEK2; 0.1 μM; 10 μM ATP; read-out: % Enzyme Activity (relative to DMSO controls)
T10 construct: purchased Reaction Biology Corp
Text: as §1

[11] = molecular target: T11, panel of 371 human kinases (Homo sapiens, UniProt Q7L7X3); settings: TAOK1; 0.1 μM; 10 μM ATP; read-out: % Enzyme Activity (relative to DMSO controls)
T11 construct: purchased Reaction Biology Corp
Text: as §1

[12] = molecular target: T12, panel of 371 human kinases (Homo sapiens, UniProt Q12852); settings: DLK/MAP3K12; 0.1 μM; 10 μM ATP; read-out: % Enzyme Activity (relative to DMSO controls)
T12 construct: purchased Reaction Biology Corp
Text: as §1

[13] = molecular target: T13, panel of 371 human kinases (Homo sapiens, UniProt Q9BYP7); settings: WNK3; 0.1 μM; 10 μM ATP; read-out: % Enzyme Activity (relative to DMSO controls)
T13 construct: purchased Reaction Biology Corp
Text: as §1

[14] = molecular target: T14, panel of 371 human kinases (Homo sapiens, UniProt Q06418); settings: TYRO3/SKY; 0.1 μM; 10 μM ATP; read-out: % Enzyme Activity (relative to DMSO controls)
T14 construct: purchased Reaction Biology Corp
Text: as §1

[15] = molecular target: T15, panel of 371 human kinases (Homo sapiens, UniProt Q9H4B4); settings: PLK3; 0.1 μM; 10 μM ATP; read-out: % Enzyme Activity (relative to DMSO controls)
T15 construct: purchased Reaction Biology Corp
Text: as §1

[16] = molecular target: T16, panel of 371 human kinases (Homo sapiens, UniProt O43293); settings: ZIPK/DAPK3; 0.1 μM; 10 μM ATP; read-out: % Enzyme Activity (relative to DMSO controls)
T16 construct: purchased Reaction Biology Corp
Text: as §1

[17] = molecular target: T17, panel of 371 human kinases (Homo sapiens, UniProt P11802); settings: 0.1 μM, 10 μM ATP, read-out: % Enzyme Activity (relative to DMSO controls)
T17 construct: purchased Reaction Biology Corp
T17 sequence (P11802 whole entry): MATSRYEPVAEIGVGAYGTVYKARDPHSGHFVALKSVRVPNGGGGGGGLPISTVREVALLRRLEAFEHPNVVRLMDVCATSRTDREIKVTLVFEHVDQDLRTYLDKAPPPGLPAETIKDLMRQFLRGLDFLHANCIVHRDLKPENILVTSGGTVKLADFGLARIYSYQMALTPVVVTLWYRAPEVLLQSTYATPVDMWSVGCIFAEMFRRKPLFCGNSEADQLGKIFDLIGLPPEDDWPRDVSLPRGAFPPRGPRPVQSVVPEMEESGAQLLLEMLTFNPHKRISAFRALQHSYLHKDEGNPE
Text: as §1

[18] = molecular target: T18, panel of 371 human kinases (Homo sapiens, UniProt Q9UKE5); settings: TNIK; 0.1 μM; 10 μM ATP; read-out: % Enzyme Activity (relative to DMSO controls)
T18 construct: purchased Reaction Biology Corp
T18 sequence (Q9UKE5 whole entry): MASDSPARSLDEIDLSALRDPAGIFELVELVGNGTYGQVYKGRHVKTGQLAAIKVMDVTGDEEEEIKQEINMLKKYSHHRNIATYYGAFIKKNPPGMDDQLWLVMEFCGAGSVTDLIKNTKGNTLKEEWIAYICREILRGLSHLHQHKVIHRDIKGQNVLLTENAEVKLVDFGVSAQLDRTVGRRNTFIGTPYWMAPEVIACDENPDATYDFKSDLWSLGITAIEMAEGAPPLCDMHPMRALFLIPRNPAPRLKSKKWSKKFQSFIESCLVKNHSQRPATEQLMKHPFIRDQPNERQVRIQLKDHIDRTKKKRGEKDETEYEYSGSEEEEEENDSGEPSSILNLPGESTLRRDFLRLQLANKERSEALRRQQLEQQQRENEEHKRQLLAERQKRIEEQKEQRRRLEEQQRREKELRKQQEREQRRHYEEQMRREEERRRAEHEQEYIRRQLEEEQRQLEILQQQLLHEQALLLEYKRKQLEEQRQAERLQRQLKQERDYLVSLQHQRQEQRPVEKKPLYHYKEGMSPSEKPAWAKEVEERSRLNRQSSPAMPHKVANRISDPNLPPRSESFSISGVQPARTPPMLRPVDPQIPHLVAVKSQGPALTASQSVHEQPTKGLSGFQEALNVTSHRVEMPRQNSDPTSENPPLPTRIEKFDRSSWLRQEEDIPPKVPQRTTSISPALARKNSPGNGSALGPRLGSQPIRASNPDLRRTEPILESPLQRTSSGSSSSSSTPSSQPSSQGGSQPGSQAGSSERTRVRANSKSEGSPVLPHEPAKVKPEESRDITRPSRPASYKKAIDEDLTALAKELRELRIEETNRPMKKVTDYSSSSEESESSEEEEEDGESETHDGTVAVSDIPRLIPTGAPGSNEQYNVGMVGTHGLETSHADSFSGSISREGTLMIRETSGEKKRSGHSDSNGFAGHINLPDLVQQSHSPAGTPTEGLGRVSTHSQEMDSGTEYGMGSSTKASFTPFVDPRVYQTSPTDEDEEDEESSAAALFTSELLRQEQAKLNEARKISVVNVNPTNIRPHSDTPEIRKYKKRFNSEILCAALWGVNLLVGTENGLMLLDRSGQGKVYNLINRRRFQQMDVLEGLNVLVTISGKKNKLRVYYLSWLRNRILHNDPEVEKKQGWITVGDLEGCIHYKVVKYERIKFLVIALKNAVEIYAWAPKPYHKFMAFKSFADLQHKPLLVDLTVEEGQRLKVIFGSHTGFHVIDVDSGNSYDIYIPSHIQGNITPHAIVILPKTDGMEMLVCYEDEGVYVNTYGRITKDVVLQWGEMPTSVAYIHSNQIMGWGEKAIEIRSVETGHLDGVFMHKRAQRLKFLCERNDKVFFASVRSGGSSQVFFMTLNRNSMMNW
Text: as §1

[19] = molecular target: T19, panel of 371 human kinases (Homo sapiens, UniProt Q02779); settings: MLK2/MAP3K10; 0.1 μM; 10 μM ATP; read-out: % Enzyme Activity (relative to DMSO controls)
T19 construct: purchased Reaction Biology Corp
Text: as §1

[20] = molecular target: T20, panel of 371 human kinases (Homo sapiens, UniProt Q92630); settings: DYRK2; 0.1 μM; 10 μM ATP; read-out: % Enzyme Activity (relative to DMSO controls)
T20 construct: purchased Reaction Biology Corp
Text: as §1

[21] = molecular target: T21, panel of 371 human kinases (Homo sapiens, UniProt Q9HBY8); settings: SGK2; 0.1 μM; 10 μM ATP; read-out: % Enzyme Activity (relative to DMSO controls)
T21 construct: purchased Reaction Biology Corp
T21 sequence (Q9HBY8 whole entry): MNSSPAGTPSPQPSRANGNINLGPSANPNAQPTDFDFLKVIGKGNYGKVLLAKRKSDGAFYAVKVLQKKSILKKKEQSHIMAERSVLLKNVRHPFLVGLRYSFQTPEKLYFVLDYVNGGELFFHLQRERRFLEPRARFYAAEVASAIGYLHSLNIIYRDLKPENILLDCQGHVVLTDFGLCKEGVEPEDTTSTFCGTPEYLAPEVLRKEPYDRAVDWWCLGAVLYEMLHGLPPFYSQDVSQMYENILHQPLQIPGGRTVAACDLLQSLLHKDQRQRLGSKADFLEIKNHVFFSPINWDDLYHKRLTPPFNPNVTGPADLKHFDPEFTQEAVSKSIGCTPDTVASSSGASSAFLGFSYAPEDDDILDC
Text: as §1

[22] = molecular target: T22, panel of 371 human kinases (Homo sapiens, UniProt Q13627); settings: DYRK1/DYRK1A; 0.1 μM; 10 μM ATP; read-out: % Enzyme Activity (relative to DMSO controls)
T22 construct: purchased Reaction Biology Corp
Text: as §1

[23] = molecular target: T23, panel of 371 human kinases (Homo sapiens, UniProt P52564); settings: MKK6; 0.1 μM; 10 μM ATP; read-out: % Enzyme Activity (relative to DMSO controls)
T23 construct: purchased Reaction Biology Corp
Text: as §1

[24] = molecular target: T24, panel of 371 human kinases (Homo sapiens, UniProt P05771); settings: PKCb1; 0.1 μM; 10 μM ATP; read-out: % Enzyme Activity (relative to DMSO controls)
T24 construct: purchased Reaction Biology Corp
T24 sequence (P05771 whole entry): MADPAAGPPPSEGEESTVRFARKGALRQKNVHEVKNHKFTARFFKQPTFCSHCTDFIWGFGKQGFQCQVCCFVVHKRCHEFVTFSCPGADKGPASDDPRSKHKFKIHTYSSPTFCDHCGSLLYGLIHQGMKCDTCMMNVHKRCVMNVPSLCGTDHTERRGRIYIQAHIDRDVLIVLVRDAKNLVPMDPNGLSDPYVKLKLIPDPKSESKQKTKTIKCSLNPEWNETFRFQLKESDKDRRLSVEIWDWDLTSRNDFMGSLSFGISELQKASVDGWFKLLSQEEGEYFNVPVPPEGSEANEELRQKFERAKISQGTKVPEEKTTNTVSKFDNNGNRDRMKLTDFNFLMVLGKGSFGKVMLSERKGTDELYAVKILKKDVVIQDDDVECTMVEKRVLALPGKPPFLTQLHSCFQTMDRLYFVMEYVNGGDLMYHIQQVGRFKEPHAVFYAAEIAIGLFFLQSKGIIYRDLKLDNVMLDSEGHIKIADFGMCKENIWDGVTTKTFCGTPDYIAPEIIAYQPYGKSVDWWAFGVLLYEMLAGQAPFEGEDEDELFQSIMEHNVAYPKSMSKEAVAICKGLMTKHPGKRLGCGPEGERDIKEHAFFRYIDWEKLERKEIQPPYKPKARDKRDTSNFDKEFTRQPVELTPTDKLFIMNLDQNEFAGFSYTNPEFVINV
Text: as §1

Row | SMILES | remaining activity at 0.1 µM [1] | remaining activity at 0.1 µM [2] | remaining activity at 0.1 µM [3] | remaining activity at 0.1 µM [4] | remaining activity at 0.1 µM [5] | remaining activity at 0.1 µM [6] | remaining activity at 0.1 µM [7] | remaining activity at 0.1 µM [8] | remaining activity at 0.1 µM [9] | remaining activity at 0.1 µM [10] | remaining activity at 0.1 µM [11] | remaining activity at 0.1 µM [12] | remaining activity at 0.1 µM [13] | remaining activity at 0.1 µM [14] | remaining activity at 0.1 µM [15] | remaining activity at 0.1 µM [16] | remaining activity at 0.1 µM ([17]; CDK4/cyclin D1) | remaining activity at 0.1 µM ([17]; CDK4/cyclin D3) | remaining activity at 0.1 µM [18] | remaining activity at 0.1 µM [19] | also measured
1 | OCCN1CCN(Cc2ccc(-c3cnc4[nH]cc(-c5cccc(Cl)c5)c4c3)cc2)CC1 [Compound 12k, 2-(4-(4-(3-(3-Chlorophenyl)-1H-pyrrolo[2,3-b]pyridin-5-yl)benzyl)piperazin-1-yl)ethan-1-ol] | 98.3% | 95% | 106% | 59.8% | 9.36% | 91.3% | 97.3% | 99.3% | 96.2% | 92% | 59.8% | 82.8% | 82.2% | 94.3% | 103% | 99.8% | 56.4% | 67.2% | -0.01% | 73.1% | remaining activity at 0.1 µM [20]: 85.6%; remaining activity at 0.1 µM [21]: 96.7%; remaining activity at 0.1 µM [22]: 40.7%; remaining activity at 0.1 µM [23]: 97.9%; remaining activity at 0.1 µM [24]: 86.2%
2 | CN1CCN(Cc2ccc(-c3cnc4[nH]cc(-c5ccc6[nH]ccc6c5)c4c3)cc2)CC1 [Compound 1, 3-(1H-Indol-5-yl)-5-(4-((4-methylpiperazin-1-yl)methyl)phenyl)-1H-pyrrolo[2,3-b]pyridine, reference compound] | 83% | 93.9% | 89% | 83.2% | 23.2% | 89.5% | 110% | 90.3% | 103% | 96.2% | 78.3% | 90.8% | 93.7% | 86.8% | 106% | 108% | 69.2% | 90.9% | 5.84% | 84.1% | remaining activity at 0.1 µM [20]: 71.7%; remaining activity at 0.1 µM [21]: 92.8%; remaining activity at 0.1 µM [22]: 52.4%; remaining activity at 0.1 µM [23]: 116%; remaining activity at 0.1 µM [24]: 78.3%

From patent publication US12227500B2, “Substituted pyrrolo[2,3-b]pyridines for suppressing toxic endoplasmic reticulum stress” (THE TRUSTEES OF COLUMBIA UNIVERSITY IN THE CITY OF NEW YORK, priority 2018, dated 2025)
